Laboratory results from patent publication US10058587B2, “Peptide composition for cancer treatment by inhibiting TRPV6 calcium channel activity” (priority 2008, dated 2018).
Where two headings read alike, the source gives them in different places. Bridges are numbered along the chain shown (N, C = ends). Where no end group is shown, it is not given here.

How the values were obtained:
human TRPV6b = target: T1, human TRPV6b (Homo sapiens, UniProt Q9H1D0); experiment: Whole-cell patch clamp of calcium store operated current (ISOC) through TRPV6 in transfected LnCaP cells; type: cell-based
T1 construct: expressed in transfected cells; host or cells: LnCaP (ATCC CRL-1740), human lymph node prostate cancer cells
T1 sequence (Q9H1D0 41-765 limits assumed): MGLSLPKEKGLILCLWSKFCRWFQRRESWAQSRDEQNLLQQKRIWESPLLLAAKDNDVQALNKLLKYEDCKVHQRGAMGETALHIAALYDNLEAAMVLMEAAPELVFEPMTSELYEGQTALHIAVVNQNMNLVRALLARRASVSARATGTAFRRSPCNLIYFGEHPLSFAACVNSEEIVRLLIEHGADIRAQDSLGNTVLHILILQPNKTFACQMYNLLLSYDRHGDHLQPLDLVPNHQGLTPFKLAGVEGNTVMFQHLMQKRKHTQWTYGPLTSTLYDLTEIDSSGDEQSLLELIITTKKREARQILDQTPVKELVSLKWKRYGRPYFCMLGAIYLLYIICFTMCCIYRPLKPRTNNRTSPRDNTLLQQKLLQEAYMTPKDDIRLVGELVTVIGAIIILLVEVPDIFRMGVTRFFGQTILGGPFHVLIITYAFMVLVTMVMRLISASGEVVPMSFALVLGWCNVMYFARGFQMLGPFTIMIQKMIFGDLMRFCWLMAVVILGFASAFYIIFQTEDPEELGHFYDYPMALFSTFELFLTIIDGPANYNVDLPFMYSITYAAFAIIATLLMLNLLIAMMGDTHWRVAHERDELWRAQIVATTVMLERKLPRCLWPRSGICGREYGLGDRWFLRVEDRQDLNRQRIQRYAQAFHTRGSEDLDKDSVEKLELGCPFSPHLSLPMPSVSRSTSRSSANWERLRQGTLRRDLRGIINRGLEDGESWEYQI
Experimental: An expression vector (pCAGS-IRES-hTRPV6b) (Bodding et al. 2003) containing the nucleotide code for human TRPV6b was transfected into and expressed by human lymph node prostate cancer (LnCaP, ATCC CRL-1740). Patch clamping with whole-cell current acquisition was used to measure the calcium current through this channel. Cells were treated and calcium store operated current (ISOC) was measured with either SorC13 (n=90) or SorC27 (n=30) in a closed-circuit perfusion for 3 min at each of cumulative concentrations of 0 (baseline), 100 nM, 500 nM 1 uM, 30 uM and 100 uM. Washout perfusion was done at 2 mL/min for 3 min. […] Further, both C-peptides are very strong inhibitors of calcium current through the TRPV6 channel with inhibition constants in the 100 nM range.

[1] = Storage stability of solid and aqueous solution; type: physicochemical
Experimental: Additionally, the peptides have greater shelf-life stability and solution stability due to the presence of fewer sensitive disulfide bonds (soricidin has 3 disulfide bonds). The peptides of the invention optionally have no disulfide bonds. An absence of disulfide bonds provides a very long shelflife during storage under minimal refrigeration or at room temperature as a solid. Additionally when the peptides of the invention with no disulfide bonds are dissolved in water, cleavage of disulfide bonds cannot occur. […] The formation of inter-peptide S—S bonds also results in precipitation of soricidin. The peptides of the invention, such as SorC13 and SorC27, are typically stable in aqueous solution at 8° C. for at least 3 weeks with no change in purity as measured by HPLC.
“Very stable” in the above table means that there was no observable degradation of the solid peptides over 6 months. As a solution in sterile water, the peptides are typically stable for at least 3 weeks at 8° C. and at −20° C., are expected to be stable more than 1 year.

[2] = Physiological effects after i.v. injection into CD1 mice (blood pressure, heart rate, neurological/behavioral); type: in vivo
Experimental: (§1) After in vivo i.v. injection into CD1 mice, SorC13 caused a small spike (approximately 25%) in blood pressure in the first 15 min which disappeared by 1 hour.

[3] = Degradation rate in rat plasma (HPLC); type: in vitro ADME
Experimental: (§2) Rat plasma was obtained from blood taken from sacrificed rats (Sprague-Dawley) and placed into heparinized glass vials to prevent clotting. Whole blood was centrifuged at 8000×g for 5 minutes to spin down the cells leaving the plasma as supernatant. Human whole blood samples from healthy humans were taken in lithium-heparinized vacuum tubes. The samples were placed into 2.0 mL microcentrifuge tubes and centrifuged at 8000×g for 5 min. The plasma was carefully separated from red blood cells and used immediately.
(§3) Determination of degradation rate of the C-peptides was done by measuring, with the HPLC protocol, the amount of either SorC13 or SorC27 in dosed plasma samples, after time. Sample tubes (500 uL) containing 2 uL of 2 mM Pefabloc were previously prepared for sample delivery SorC13 (1.0 mg) or SorC27 (2.0 mg) were dissolved in 1.0 mL of fresh plasma (37° C.) and placed in an incubating water bath at 37° C. A sample (100 uL) was taken immediately and quenched in sample tubes containing 2 uL of 2 mM Pefabloc, mixed vigorously and immediately frozen at −80° C. This initial sample represented time zero for the run. At successive time intervals of 5 minutes, 100 uL samples were withdrawn, quenched in Pefabloc, mixed, and frozen at −80° C. until analysis.
(§4) The rat plasma degradation rate was determined for the plasma from three different rats, while the rate of degradation in human plasma used six separate plasma samples. The data used were the means (±SEM) and were fitted to a simple one-phase exponential decay model to determine the half-life of the two peptides. This also allowed the calculation of a static degradation rate. FIG. 11 is illustrative of the rate at which SorC27 was degraded in human plasma.

[4] = Degradation rate in human plasma (HPLC); type: in vitro ADME
Experimental: as §2, §3, §4

[5] = Single dose acute intravenous bolus toxicity study with 5-day observation; type: in vivo, CD-1 mice
Experimental: A single dose acute intravenous bolus injection toxicity study followed by a 5-day observation period in CD-1 mice was performed as described below. Three doses of each of SorC13 and SorC27 were used (10, 100 and 500 mg/Kg). Daily cage-side exams for 5 days with hourly exams for the first 4 hrs post injection. As part of the analysis the following assessments were made: body weights prior to dosing and at termination; all animals were necropsied (including preparation of bone marrow smears); organ weights were taken of all animals.
as §1

[6] = Repeated dose toxicity study; type: in vivo, NOD/SCID mice; conditions: 400 mg/kg, daily i.p. injection for 12 days
Experimental: In order to investigate repeated dose toxicity, SorC27 at 400 mg/kg formulated in saline was injected (i.p.) into NOD/SCID mice every day for 12 days. The animals were observed cage-side each day and examined at the end of the experimental period.

[7] = Tissue distribution of Cy5.5-labeled peptides by optical imaging; type: in vivo, CD1 mice; conditions: Cy5.5-tagged peptide
Excerpt: SorC13 and SorC27 were labeled with the near-infrared probe, Cy5.5. SorC13 was labeled at lysine-1 and lysine-8 with the infrared fluorescent probe cy5.5 through reaction with Cy5.5 NHS ester-activated process. SorC27 was labeled at the single cysteine thiol with Cy5.5 maleamide-activated reaction. The labeled peptides were purified with a combination of size exclusion chromatography and HPLC. The label, Cy5.5, fluoresces in the infra-red region after excitation with a scanning laser. The low energy laser is able to penetrate the animal to about 1 cm and, thus, by scanning prone and supine positions, the presence of the tagged peptides can be quantified in three dimensions.
Cy5.5-labeled peptides were intravenously injected into CD1 mice (4 for each compound) at 100 ug per animal in 100 uL, and animals were imaged live using an optical imaging system, Optix eXplorer (GE Healthcare Systems) at different time points (30 min, 90 min, 4 h). […] The bio-distribution of the labeled peptides in different organs and tissues were visualized and relatively quantified by optical imaging analysis. This protocol allows for visualization of the location of the labeled peptides and how the location changes over time. […] Nodes that accumulated the labeled peptides are indicated by line 1 (superfacial cervical nodes), line 4 (axillary nodes), line 5 (brachial nodes), line 8 (mesenteric nodes) and line 9 (inguinal nodes). FIGS. 8, 9 and 10 show the amounts of labeled peptides in various organs ex vivo.

[8] = Clearance route in iv mice; conditions: i.v.
mealworm larvae [9] = experiment: Mealworm larva paralytic bioassay; type: in vivo; conditions: for larvae paralyzed: 20 nmole/100 mg mass
Excerpt: To show this, the mealworm larva paralytic bioassay reported previously (U.S. Pat. No. 7,119,168) was used. Animals from a mealworm colony were arbitrarily selected and placed in groups (treatment and control). The animals were weighed to allow calculation of equivalent doses. The treatment was with either SorC13 or SorC27 dissolved in buffered insect Ringer's solution. The control was injection was an equivalent volume of insect Ringer's (NaCl; 10.40 g; KCl, 0.32 g; CaCl2, 0.48 g; NaHCO3, 0.32 g dissolved in 1 L of Millipore sterile water, pH 7.4). Peptide formulations were: SorC27 solutions, prepared at 1.0 mg/100 uL insect Ringer's (10 ug/uL, […], MW=2957); and SorC13, prepared at 0.5 mg/100 uL (5 ug/uL, […], MW=1566). The doses were 50 ug SorC27 per 100 mg of animal mass and 25 ug SorC13 per 100 mg of animal mass. Peptide solutions and control saline were injected dorsally at the fourth segment from the head, just under the integumen. Animals were gently ‘tail tweaked’ with forceps to trigger the escape reflex reaction and scored on time-to-effect, duration of effect and intensity of effect.

pI = type: physicochemical; conditions: measured
mealworm larvae [10] = experiment: Mealworm larva paralytic bioassay; type: in vivo
[11] = single i.v. 10, 100 and 500 mg/kg

Sequence: KEFLHPSKVDLPR [SorC13, KEFLHPSKVDLPR]
- IC50 (human TRPV6b): 100 nM
- Kd (human TRPV6b): 100 nM
- Stability in aqueous solution @ −20° C. [1]: Very stable
- Stability solid @ Room Temp. [1]: Very stable
- Stability solid @ −20° C. [1]: Very stable
- neurological/behavioral changes ([2]; i.v., over 72 hours): no neurological/behavioral changes
- spike in blood pressure in the first 15 min ([2]; i.v., disappeared by 1 hour): approximately 25%
- BP spike @ 15 min ([2]; mice @ 5 mg/kg, stabilizes by 1 hr): 15% BP spike, @
- half-life ([3]; Sprague-Dawley, rat, plasma, 37° C.): 58 min
- binding to plasma proteins ([3]; rat plasma): doesn't
- binding to plasma proteins ([4]; human plasma): doesn't
- half-life ([4]; human, plasma, 37° C.): 56.6 min
- Maximum Tolerated Dose in CD-1 mice by single i.v. dose ([5]; 10, 100 and 500 mg/kg doses): No toxic effects
- adverse events over 5-day post-injection observation period [5, 11]: no adverse events
- necropsy changes in major organ systems [5, 11]: no significant changes in all major organ systems
- Repeated dose in NOD/SCID mice: body weight [6]: No loss of body
- Repeated dose in NOD/SCID mice: toxic effects [6]: controls, no toxic
- detectable in tissues after perfusion ([7]; 24 hours): still detectable
- tissue localization ([7]; i.v. 100 ug): localize predominantly in lymph nodes, lung, liver and kidney
- solubility (Solubility (aqueous); aqueous): > 200 mg/mL
- Clearance route in iv mice @ 5 mg/kg [8]: Rapid via kidney.

Sequence: DCSQDCAACSILARPAELNTETCILECEGKLSSNDTEGGLCKEFLHPSKVDLPR (disulfide 2-23, 6-27, 9-41) [Sor54, soricidin, reference compound]
- larvae paralyzed (mealworm larvae [9]; time 0 min): 4/4
- larvae paralyzed (mealworm larvae [9]; time 2 min): 4/4
- larvae paralyzed (mealworm larvae [9]; time 30 min): 4/4
- paralysis in the mealworm larva model (mealworm larvae [9]; molar equivalent doses (20 nanomole/100 mg larva)): profoundly paralytic
- pI (pI): 4.3 (measured)
- Stability in aqueous solution @ −20° C. [1]: stable
- Stability solid @ Room Temp. [1]: unstable
- Stability solid @ −20° C. [1]: stable
- binding to plasma proteins ([3]; rat plasma): binds to
- half-life ([3]; rat plasma): > 1800 min
- binding to plasma proteins ([4]; human plasma): binds to
- half-life ([4]; human plasma): > 1800 min
- Physiol. effects in vivo (mealworm larvae); 5 mg/kg (mealworm larvae [10]): Paralytic
- solubility (Solubility (aqueous)): < 20 mg/mL
